# Reference: US12187722B2, “Small molecule inhibitors of TEAD transcription factors” (The General Hospital Corporation, priority 2019, dated 2025)
# Several values for one entry are separate records, joined by “and”; a condition that tells them apart may be missing. Identical values can stand only once.
# Biological target: TEAD2 (Homo sapiens (Human), UniProt Q15562)
# Test: In vitro palmitoylation (TEAD2 autopalmitoylation, streptavidin blot)
# Type: biochemical
# Settings: compound at 10 μM
# Protocol: Recombinant GST-TEAD2 or His6TEAD2 (500 ng) protein was pre-incubated with the compounds at indicated concentrations for 15 min. and then incubated with 1 μM of alkyne palmitoyl-5 CoA (Cayman Chemical) for 30 min or 50 mM MES, pH 6.4, followed by Click reaction with biotin-azide as previously described (Zheng, B. et al., J. Am. Chem. Soc., 2013, 135, 7082-7085). Click reaction was performed with 100 μM biotin-azide, 1 mM tris(2-carboxyethyl) phosphine hydrochloride (TCEP), 100 μM tris[(1-benzyl-1H-1,2,3-triazol-4-yl) methyl] amine (TBTA) and 1 mM CuSO4 for 1 h at RT.
# The reactions were terminated by the addition of 12 μL of 6×SDS-sample loading buffer (50 mM Tris-HCl, pH 6.8, 6% SDS, 48% Glycerol, 0.03% Bromophenol Blue, 30 mM EDTA, 9% MeSH). Samples were analysed by SDS-PAGE and Western blot was performed by probing with streptavidin HRP and histidine HRP antibodies independently. Bands intensity obtained from streptavidin blot were quantified using BIORAD, Gel doc system and the percentage of inhibition of Tead2 auto palmitoylation is determined by comparing to the DMSO control treated samples.
# These compounds were tested for activity in inhibiting TEAD2 palmitoylation in the assay described above.
# Chain of TEAD2 (Q15562 whole entry): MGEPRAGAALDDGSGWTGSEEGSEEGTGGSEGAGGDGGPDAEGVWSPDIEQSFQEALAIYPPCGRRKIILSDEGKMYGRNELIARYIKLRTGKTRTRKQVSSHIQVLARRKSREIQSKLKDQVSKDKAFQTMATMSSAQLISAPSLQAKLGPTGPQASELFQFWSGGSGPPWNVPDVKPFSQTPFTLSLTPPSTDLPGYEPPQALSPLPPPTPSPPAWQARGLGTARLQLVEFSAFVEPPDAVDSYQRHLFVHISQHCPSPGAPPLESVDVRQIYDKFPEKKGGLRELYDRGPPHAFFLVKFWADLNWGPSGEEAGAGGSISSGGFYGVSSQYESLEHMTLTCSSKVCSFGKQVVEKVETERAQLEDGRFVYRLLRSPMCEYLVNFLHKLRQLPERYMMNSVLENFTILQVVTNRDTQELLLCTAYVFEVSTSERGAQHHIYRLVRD
row,inhibition at 10 µM [%],Structure (SMILES)
1,20,O=C(Nc1ccc(C23CC4CC(CC(C4)C2)C3)cc1)Nc1ccc2nc[nH]c2c1
2,5,O=C(Nc1ccc(C23CC4CC(CC(C4)C2)C3)cc1)c1ccc2nc[nH]c2c1
3,100,CC(C)(C)OC(=O)c1ccc(Nc2ccc(Nc3ccccc3C(=O)O)cc2)cc1
4,100,CC(C)c1ccccc1-c1ccc(NC(=O)CC2CN(C(=O)OC(C)(C)C)C2)cc1

# Same assay, conditions: compound at 10 μM; Table 2
inhibition at 10 µM [%],% of inhibition of TEAD2 palmitoylation at 10 μM,Structure (SMILES)
8,–,c1ccc2c(c1)ccn2-c1ccc(Nc2ccc(C34CC5CC(CC(C5)C3)C4)cc2)cc1 [Compound 244]
0,–,O=C(O)c1cccnc1Nc1cn(Cc2ccc(C34CC5CC(CC(C5)C3)C4)cc2Cl)cn1 [Compound 134]
99,–,CN(C(=O)c1ccc(Nc2ccccc2C(=O)O)cc1)c1ccc(C23CC4CC(CC(C4)C2)C3)cc1 [Compound 192]
90,–,O=C(O)c1ccccc1Nc1cccc(Nc2ccc(C34CC5CC(CC(C5)C3)C4)cc2)c1 [Compound 25]
81,–,O=C(Nc1ccc(Nc2ncccc2C(=O)O)cc1)Nc1ccc(C23CC4CC(CC(C4)C2)C3)cc1 [Compound 180]
50,–,O=C(O)c1ccccc1Nc1cc(Nc2ccc(C34CC5CC(CC(C5)C3)C4)cc2Cl)cc(C(F)(F)F)c1 [Compound 33]
60,–,O=C(O)c1cccc2nc(-c3cccc(C45CC6CC(CC(C6)C4)C5)c3)[nH]c12 [Compound 97]
85,–,CC12CC3CC(C)(C1)CC(c1ccc(NC(=O)c4cccc(Nc5ncccc5C(=O)O)c4)c(Cl)c1)(C3)C2 [Compound 262]
0,–,O=C(NC12CC3CC(CC(C3)C1)C2)c1ccc(Nc2ccc(Nc3cccc(C(=O)O)n3)cc2)cc1 [Compound 219]
100,–,O=C(Nc1ccc(C23CC4CC(CC(C4)C2)C3)cc1Br)c1ccc(Nc2ccccc2C(=O)O)cc1 [Compound 36]
10,–,COC(=O)c1ccccc1Nc1cccc(Nc2ccc(C34CC5CC(CC(C5)C3)C4)cc2)c1 [Compound 1]
53,–,O=C(Nc1ccc(Nc2ccc(C34CC5CC(CC(C5)C3)C4)cc2Cl)cc1)[C@H]1CCC[C@H]1C(=O)O (stereo in doubt) [compound 288]
80,–,O=C(O)c1cccnc1Nc1ccc(Nc2cccc(C34CC5CC(CC(C5)C3)C4)c2)cc1 [Compound 104]
0,–,CCCCN(c1ccccc1)c1ccc(Nc2ccc(Nc3ccccc3C(=O)O)cc2)c(Cl)c1 [Compound 258]
–,66% and 91%,O=C(O)c1cccc(Nc2ccc(C(=O)Nc3ccc(C45CC6CC(CC(C6)C4)C5)cc3)cc2)c1 [Compound 185]
32,–,COc1cccc(Nc2cccc(C(=O)Nc3ccc(C45CC6CC(CC(C6)C4)C5)cc3)c2)c1C(=O)O [Compound 248]
10,–,Cc1ccc(Nc2cc(Nc3ccc(C45CC6CC(CC(C6)C4)C5)cc3)cc(C(F)(F)F)c2)c(C(=O)O)c1 [Compound 28]
95,–,O=C(O)c1cccnc1CN1CCCC(Nc2ccc(C34CC5CC(CC(C5)C3)C4)cc2Cl)C1 (stereo not drawn) [Compound 141]
88,–,O=C(O)C1CCCN(C(=O)c2ccc(Nc3ccc(C45CC6CC(CC(C6)C4)C5)cc3Cl)cc2)C1 (stereo not drawn) [Compound 123]
79,–,Cc1ccccc1-c1ccc(Nc2ccc(Nc3ccccc3C(=O)O)cc2)c(Cl)c1 [Compound 51]

inhibition at 10 µM [%],% of inhibition of TEAD2 palmitoylation at 10 μM,Structure (SMILES)
–,83%,O=C(O)C1CCCCC1Nc1ccc(Nc2ccc(C34CC5CC(CC(C5)C3)C4)cc2Cl)cc1 (stereo not drawn) [Compound 47]
30,–,O=C(Nc1ccc(C23CC4CC(CC(C4)C2)C3)cc1Cl)c1ccc(Nc2ccccc2C(=O)O)cc1 [Compound 37]
30,–,N#Cc1ccccc1Nc1ccc(Nc2ccc(C34CC5CC(CC(C5)C3)C4)cc2Cl)cc1 [Compound 7]
92,–,O=C(O)c1cncn1Cc1cccc(Nc2ccc(C34CC5CC(CC(C5)C3)C4)cc2Cl)c1 [Compound 128]
56,–,CC12CC3CC(C)(C1)CC(c1ccc(Nc4ccc(Nc5ccccc5C(=O)O)cc4)cc1)(C3)C2 [Compound 177]
45,–,Cc1cc(C23CC4CC(CC(C4)C2)C3)cc(C)c1Nc1ccc(Nc2ccccc2C(=O)O)cc1 [Compound 79]
101,–,O=C(O)c1cccnc1Nc1ccc(S(=O)(=O)Nc2ccc(C34CC5CC(CC(C5)C3)C4)cc2)cc1 [Compound 188]
90,–,O=C(O)c1cccnc1Nc1ccc(C23CC4CC(CC(C4)C2)C3)cc1Br [Compound 92]
70,–,CN(c1ccc(C(=O)Nc2ccc(C34CC5CC(CC(C5)C3)C4)cc2)cc1)c1ncccc1C(=O)O [Compound 147]
91,–,CC(C)(C)OC(=O)NC(Cc1ccc(Nc2ccc(C34CC5CC(CC(C5)C3)C4)cc2Cl)cc1)C(=O)O (stereo not drawn) [Compound 94]
98,–,O=C(O)c1cccnc1Nc1ccc(S(=O)(=O)Nc2ccc(C34CC5CC(CC(C5)C3)C4)cc2Cl)cc1 [Compound 261]
99,–,O=C(O)c1cccnc1Nc1ccc(Nc2ccc(C34CC5CC(CC(C5)C3)C4)cc2Cl)cc1 [Compound 59]
55,–,O=C(Nc1ncccc1C(=O)O)c1ccc(Nc2ccc(C34CC5CC(CC(C5)C3)C4)cc2)cc1 [Compound 217]
92,–,CN(c1ccc(C23CC4CC(CC(C4)C2)C3)cc1)c1ccc(N(C)c2ncccc2C(=O)O)cc1C(F)(F)F [Compound 156]
–,85%,CN(c1ccc(Nc2ccc(C34CC5CC(CC(C5)C3)C4)cc2)cc1)c1ccccc1C(=O)O [Compound 165]
–,61% and 84%,O=C(Nc1ccc(C23CC4CC(CC(C4)C2)C3)cc1)c1ccc(Nc2ncccc2C(=O)O)cc1 [Compound 145]
85,–,O=C(O)c1ccccc1Nc1ccc(S(=O)(=O)Nc2ccc(C34CC5CC(CC(C5)C3)C4)cc2)cc1 [Compound 190]
55,–,O=C(NC12CC3CC(CC(C3)C1)C2)c1ccc(Nc2ccc(Nc3ncccc3C(=O)O)cc2)cc1 [Compound 257]
80,–,O=C(O)c1cnn(Cc2ccc(Nc3ccc(C45CC6CC(CC(C6)C4)C5)cc3Cl)cc2)c1 [Compound 121]
49,–,CCCCN(c1ccccc1)c1ccc(Nc2ccc(Nc3cccc(C(=O)O)n3)cc2)cc1 [Compound 202]

# Same assay, conditions: compound at 10 μM; Table 2; listed as 293
row,% of inhibition of TEAD2 palmitoylation at 10 μM [%],Structure (SMILES)
1,86,"O=C(O)c1ccccc1C(=O)Nc1ccc(Nc2ccc(C34CC5CC(CC(C5)C3)C4)cc2Cl)cc1 [compound 286, 2-((4-(4-((3r,5r,7r)-adamantan-1-yl)-2-chlorophenyl)amino)phenyl)carbamoyl) benzoic acid]"

# Same assay, conditions: compound at 10 μM; Table 3
row,inhibition at 10 µM [%],Structure (SMILES)
1,17,N#Cc1cccc(Nc2ccc(Nc3ccc(C45CC6CC(CC(C6)C4)C5)cc3Cl)cc2)n1 [CP-688]
2,96,O=C(O)c1cccnc1Nc1cccc(Nc2ccc(C3CCCCC3)cc2Cl)c1 [CP-677]
3,39,Cc1cc(N(C)c2ccc(OCC(F)(F)F)cc2)ccc1Nc1cccc(C(=O)O)n1 [CP-646]
4,69,O=C(O)c1cccc(Nc2cc(Nc3ccc(C4CCCCC4)cc3)cc(C(F)(F)F)c2)n1 [CP-641]
5,87,Cc1cc(N(C)c2ccc(C3CCCCC3)cc2)ccc1Nc1ccc(F)cc1C(=O)O [CP-625]
6,80,COc1ccc(Nc2ccc(N(C)c3ccc(C(F)(F)F)cc3)cc2C)c(C(=O)O)c1 [CP-563]
7,73,COc1ccc(Nc2cnc(Oc3ccc(C4CCCCC4)cc3Cl)nc2)c(C(=O)O)c1 [CP-616]
8,31,COc1ccc(Nc2ccc(N(C)c3cc(C4CCCCC4)nn3C)cc2)c(C(=O)O)c1 [CP-618]
9,31,COc1ccc(Nc2ccc(N(C)c3ccc(C4CCCCC4)nc3)cc2)c(C(=O)O)c1 [CP-578]
10,23,CN(C)CCOc1ccc(Nc2ccc(N(C)c3ccc(C45CC6CC(CC(C6)C4)C5)cc3)cc2)c(C(=O)O)c1 [CP-526]
11,80,CN(c1ccc(Nc2ncccc2C(=O)O)cc1)c1ccc(C(F)(F)F)cc1 [CP-541]
12,61,COc1ccc(Nc2ccc(N(C)c3ccc(C4CCC4)cc3)cc2)c(C(=O)O)c1 [CP-556]
13,20,Cc1cc(N(C)c2ccc(C3CCCCC3)cc2)ccc1Nc1ccc(CN(C)C)cc1C(=O)O [CP-640]
14,24,COc1ccc(Nc2ccc(N(C)c3ccc(C4CCCCC4)cc3)cc2C)c(C(F)(F)F)c1 [CP-629]
15,54,COc1ccc(Nc2ccc(N(C)c3ccc(Cl)cc3)cc2)c(C(=O)O)c1 [CP-535]
16,36,COc1ccc(Nc2ccc(N(C)c3nc(C(F)(F)F)cs3)cc2)c(C(=O)O)c1 [CP-588]
17,83,CNS(=O)(=O)c1ccc(Nc2ccc(N(C)c3ccc(C4CCCCC4)cc3)cc2C)c(C(=O)O)c1 [CP-614]
18,91,COc1ccc(Nc2ccc(N(C)c3ccc(C4CCC(C)CC4)cc3)cc2)c(C(=O)O)c1 (stereo not drawn) [CP-574]
19,51,COc1ccc(Nc2ccc(N(C)c3ccc(S(F)(F)(F)(F)F)cc3)nc2)c(C(=O)O)c1 [CP-595]
20,82,COc1ccc(Nc2ccc(Oc3ccc(S(F)(F)(F)(F)F)cc3Cl)nc2)c(C(=O)O)c1 [CP-615]
21,25,Cc1cc(N(C)c2ccc(C3CCCCC3)cc2)ccc1Nc1ccc(OCC(C)(C)C)cc1C(=O)O [CP-633]
